From patent US20250236608A1, “EGFR INHIBITORS” (Blueprint Medicines Corporation, priority 2022, published 2025)

Columns and labels:
[1] = biological target: pEGFR (Tyr1068) in PC-9 cells (Ex19Del) (Homo sapiens (Human), UniProt P00533, DEL746-750); test: PC-9 pEGFR AlphaLISA assay; assay type: cell-based; conditions: 4 hours incubation, p-EGFR (Tyr1068) AlphaLISA, read-out: Ext pEGFR_PC-9 Ex19Del IC50
How it was run: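 PC-9 cells seeded overnight in phenol-free DMEM with 10% FBS, then treated 4 h at 37°C with a 10-point, 4-fold compound series. Lysates assayed for pEGFR Tyr1068 by AlphaLISA SureFire; IC50 from % inhibition vs log concentration.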

EGFR (d746-750) = EGFR (d746-750) (Homo sapiens (Human), UniProt P00533, DEL746-750); test: Biochemical EGFR inhibition assay, EGFR (d746-750); conditions: Caliper mobility shift; 1.0 mM ATP or ATP Km; read-out: Enz EGFR_Exon19-del746-750 IC50
EGFR (d746-750), sequence (P00533 other isoform, or with tags, fused parts or gaps del 1-694/del 746-750 limits assumed): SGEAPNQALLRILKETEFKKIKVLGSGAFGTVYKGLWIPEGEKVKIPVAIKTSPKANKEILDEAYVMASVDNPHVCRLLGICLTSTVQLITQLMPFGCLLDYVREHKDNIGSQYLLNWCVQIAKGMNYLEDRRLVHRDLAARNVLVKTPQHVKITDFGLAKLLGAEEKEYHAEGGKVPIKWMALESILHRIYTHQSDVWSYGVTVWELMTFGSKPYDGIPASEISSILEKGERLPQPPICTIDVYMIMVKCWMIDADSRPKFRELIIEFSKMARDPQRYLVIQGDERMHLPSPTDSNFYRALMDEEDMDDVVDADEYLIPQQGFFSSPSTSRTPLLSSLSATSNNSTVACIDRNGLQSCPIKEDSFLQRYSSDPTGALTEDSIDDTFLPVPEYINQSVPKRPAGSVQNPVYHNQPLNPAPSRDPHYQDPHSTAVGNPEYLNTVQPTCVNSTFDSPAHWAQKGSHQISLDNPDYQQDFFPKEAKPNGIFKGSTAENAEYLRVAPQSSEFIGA

EGFR L858R = EGFR L858R (Homo sapiens (Human), UniProt P00533, L858R); test: Biochemical EGFR inhibition assay, EGFR L858R; conditions: Caliper mobility shift; 1.0 mM ATP or ATP Km; read-out: Enz EGFR_L858R IC50
EGFR L858R, sequence (P00533 25-1210 L858R): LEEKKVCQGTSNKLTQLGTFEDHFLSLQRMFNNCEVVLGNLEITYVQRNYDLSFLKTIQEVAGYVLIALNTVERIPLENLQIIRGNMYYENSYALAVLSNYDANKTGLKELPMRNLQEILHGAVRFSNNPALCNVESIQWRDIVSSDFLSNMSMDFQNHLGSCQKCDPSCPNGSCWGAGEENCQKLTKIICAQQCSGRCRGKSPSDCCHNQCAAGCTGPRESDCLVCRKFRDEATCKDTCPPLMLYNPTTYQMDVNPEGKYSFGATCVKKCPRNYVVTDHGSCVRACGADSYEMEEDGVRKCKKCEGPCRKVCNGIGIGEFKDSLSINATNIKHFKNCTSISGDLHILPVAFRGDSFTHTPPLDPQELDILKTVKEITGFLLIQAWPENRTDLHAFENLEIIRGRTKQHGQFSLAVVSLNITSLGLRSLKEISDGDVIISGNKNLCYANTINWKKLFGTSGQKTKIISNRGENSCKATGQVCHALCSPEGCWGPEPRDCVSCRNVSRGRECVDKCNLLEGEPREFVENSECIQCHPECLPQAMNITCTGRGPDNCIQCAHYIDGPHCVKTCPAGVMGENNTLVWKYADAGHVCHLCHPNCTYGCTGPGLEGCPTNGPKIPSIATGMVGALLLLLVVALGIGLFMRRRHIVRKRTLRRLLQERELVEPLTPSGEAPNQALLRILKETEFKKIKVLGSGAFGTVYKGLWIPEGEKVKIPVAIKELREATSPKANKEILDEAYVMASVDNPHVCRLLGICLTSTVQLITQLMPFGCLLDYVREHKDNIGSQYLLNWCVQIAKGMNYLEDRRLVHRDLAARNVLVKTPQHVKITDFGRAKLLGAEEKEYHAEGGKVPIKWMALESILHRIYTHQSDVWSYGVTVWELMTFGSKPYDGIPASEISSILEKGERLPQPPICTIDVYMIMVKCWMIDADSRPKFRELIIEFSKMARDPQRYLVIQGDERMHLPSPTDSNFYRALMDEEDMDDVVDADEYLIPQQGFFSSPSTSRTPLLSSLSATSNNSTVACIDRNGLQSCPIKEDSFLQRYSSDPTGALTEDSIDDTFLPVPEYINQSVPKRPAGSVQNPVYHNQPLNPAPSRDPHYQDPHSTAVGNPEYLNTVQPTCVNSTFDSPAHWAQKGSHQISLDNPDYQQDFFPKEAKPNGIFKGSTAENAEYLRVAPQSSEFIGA

pEGFR (Tyr1068) in PC-9 cells (Ex19Del), sequence (P00533 other isoform, or with tags, fused parts or gaps del 746-750): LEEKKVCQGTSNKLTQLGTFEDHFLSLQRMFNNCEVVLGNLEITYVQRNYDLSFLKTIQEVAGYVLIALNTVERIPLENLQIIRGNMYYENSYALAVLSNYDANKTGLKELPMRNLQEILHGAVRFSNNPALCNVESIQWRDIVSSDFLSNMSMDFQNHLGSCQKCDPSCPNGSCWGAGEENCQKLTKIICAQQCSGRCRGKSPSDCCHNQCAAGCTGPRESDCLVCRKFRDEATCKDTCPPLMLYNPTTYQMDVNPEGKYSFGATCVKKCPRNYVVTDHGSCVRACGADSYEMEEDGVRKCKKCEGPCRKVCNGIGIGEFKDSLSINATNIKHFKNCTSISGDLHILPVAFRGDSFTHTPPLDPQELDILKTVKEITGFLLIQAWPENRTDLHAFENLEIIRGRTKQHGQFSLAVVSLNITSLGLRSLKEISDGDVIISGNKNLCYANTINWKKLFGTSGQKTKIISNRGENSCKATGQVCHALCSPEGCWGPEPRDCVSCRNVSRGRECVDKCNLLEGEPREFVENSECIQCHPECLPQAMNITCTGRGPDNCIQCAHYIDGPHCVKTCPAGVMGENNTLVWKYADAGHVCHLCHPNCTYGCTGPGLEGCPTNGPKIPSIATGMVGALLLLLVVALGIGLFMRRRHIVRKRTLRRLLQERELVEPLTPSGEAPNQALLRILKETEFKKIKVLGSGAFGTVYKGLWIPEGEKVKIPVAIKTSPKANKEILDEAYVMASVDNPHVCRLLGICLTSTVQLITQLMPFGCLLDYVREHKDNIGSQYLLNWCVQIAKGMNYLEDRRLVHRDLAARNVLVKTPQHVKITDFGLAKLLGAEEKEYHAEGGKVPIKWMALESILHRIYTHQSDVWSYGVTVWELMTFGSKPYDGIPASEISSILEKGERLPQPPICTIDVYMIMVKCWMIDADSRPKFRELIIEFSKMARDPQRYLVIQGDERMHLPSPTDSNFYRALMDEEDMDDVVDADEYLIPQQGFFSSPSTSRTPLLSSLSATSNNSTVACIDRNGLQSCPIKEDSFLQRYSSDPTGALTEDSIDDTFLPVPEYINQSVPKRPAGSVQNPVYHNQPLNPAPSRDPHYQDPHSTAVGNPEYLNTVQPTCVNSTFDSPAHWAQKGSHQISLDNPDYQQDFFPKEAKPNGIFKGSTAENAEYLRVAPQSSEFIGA

IC50 [1] [nM] | IC50 (EGFR (d746-750)) [nM] | IC50 (EGFR L858R) [nM] | Structure (SMILES)
13.7 | 2.1 | 6.1 | COc1cc2ncnc(-c3cn(C)nc3-c3ccccc3)c2cc1OC(=O)N1[C@@H](C)COC[C@@H]1C [Example 64, 7-methoxy-4-(1-methyl-3-phenyl-1H-pyrazol-4-yl)quinazolin-6-yl (3S,5S)-3,5-dimethylmorpholine-4-carboxylate]
8.4 | 2.4 | 5.7 | COc1cc2ncnc(-c3cn(C)nc3-c3ccccc3)c2cc1NC(=O)c1cccc(F)c1C [Example 200, 3-fluoro-N-(7-methoxy-4-(1-methyl-3-phenyl-1H-pyrazol-4-yl)quinazolin-6-yl)-2-methylbenzamide]
2.5 | 1.1 | 2.9 | COc1cc2ncnc(-c3cn(C)nc3-c3ccc(F)cc3)c2nc1NC(=O)[C@@]12C[C@@H]1CN(C)C2 (single isomer, unassigned) [Example 410, (1S,5S)—N-(4-(3-(4-fluorophenyl)-1-methyl-1H-pyrazol-4-yl)-7-methoxypyrido[3,2-d]pyrimidin-6-yl)-3-methyl-3-azabicyclo[3.1.0]hexane-1-carboxamide or (1R,5R)—N-(4-(3-(4-fluorophenyl)-1-methyl-1H-pyrazol-4-yl)-7-methoxypyrido[3,2-d]pyrimidin-6-yl)-3-methyl-3-azabicyclo[3.1.0]hexane-1-carboxamide]
5.6 | 1.7 | 2.8 | COc1cc2ncnc(-c3cn(C)nc3-c3ccccc3)c2cc1NC(=O)C1CCN1 (stereo not drawn) [Example 228, N-(7-methoxy-4-(1-methyl-3-phenyl-1H-pyrazol-4-yl)quinazolin-6-yl)azetidine-2-carboxamide]
495 | 33 | 17 | CCC(=O)Nc1cc2c(-c3cnn(C4COC4)c3-c3ccccc3)ncnc2cc1OC [Example 499]
1.4 | 0.8 | 1.4 | COc1cc2ncnc(-c3cn(C)nc3-c3ccccc3F)c2nc1NC(=O)C1(C(F)F)CC1 [Example 366, 1-(difluoromethyl)-N-(4-(3-(2-fluorophenyl)-1-methyl-1H-pyrazol-4-y1)-7-methoxypyrido[3,2-d]pyrimidin-6-yl)cyclopropane-1-carboxamide]
0.5 | 0.4 | 0.5 | Cn1cc(-c2ccc3c(-c4c[nH]nc4-c4cc(F)ccc4F)ncnc3c2)cn1 [Example 444, 4-(3-(2,5-difluorophenyl)-1H-pyrazol-4-yl)-7-(1-methyl-1H-pyrazol-4-yl)quinazoline]
2.1 | 1.9 | 3.4 | CCOc1cc2ncnc(-c3cn(C)nc3-c3ccccc3)c2nc1NC(=O)C12CC(C1)C2 [Example 311, N-(7-ethoxy-4-(1-methyl-3-phenyl-1H-pyrazol-4-yl)pyrido[3,2-d]pyrimidin-6-yl)bicyclo[1.1.1]pentane-1-carboxamide]
2.5 | 1.4 | 1.8 | CCOc1cc2ncnc(-c3cn(C(C)C)nc3-c3ccccc3)c2cc1[C@H](C)O (single isomer, unassigned) [Example 110, (S)-1-(7-ethoxy-4-(1-isopropyl-3-phenyl-1H-pyrazol-4-yl)quinazolin-6-yl)ethan-1-ol or (R)-1-(7-ethoxy-4-(1-isopropyl-3-phenyl-1H-pyrazol-4-yl)quinazolin-6-yl)ethan-1-ol]
7.9 | 1.8 | 3.5 | COc1cc2ncnc(-c3cn(C)nc3-c3ccccc3)c2cc1NC(=O)N1CCOC(C)(C)C1 [Example 184, N-[7-methoxy-4-(1-methyl-3-phenyl-1H-pyrazol-4-yl)quinazolin-6-yl]-2,2-dimethylmorpholine-4-carboxamide]

Structure (SMILES) | IC50 [1] [nM] | IC50 (EGFR (d746-750)) [nM] | IC50 (EGFR L858R) [nM]
COc1cc2ncnc(-c3c(-c4ccccc4)nn(C)c3C)c2cc1OC(=O)N1CCN(C)C[C@@H]1C [Example 482, 4-(1,5-dimethyl-3-phenyl-1H-pyrazol-4-yl)-7-methoxyquinazolin-6-yl(S)-2,4-dimethylpiperazine-1-carboxylate] | 320 | 97 | 207
